The source of these data is ChEMBL document CHEMBL1141299, “Hologram QSAR model for the prediction of human oral bioavailability” (Bioorg Med Chem, 2007).

For the first data set, the system named is Homo sapiens. Nature of the data set: (§1) Oral bioavailability in human. Conditions: in vivo.
`O=C(NC[C@H]1CCCCN1)c1cc(OCC(F)(F)F)ccc1OCC(F)(F)F` (stereo in doubt; 268) [(R)-FLECAINIDE] had an F of 70%.

The compound `C[C@H]1COc2c(N3CCN(C)CC3)c(F)cc3c(=O)c(C(=O)O)cn1c23.C[C@H]1COc2c(N3CCN(C)CC3)c(F)cc3c(=O)c(C(=O)O)cn1c23.O` (stereo in doubt; 162) [LEVOFLOXACIN] gave an F of 97.5%. Take `O=C(NC[C@H]1CCCCN1)c1cc(OCC(F)(F)F)ccc1OCC(F)(F)F` (stereo in doubt; 083) [(R)-FLECAINIDE]: the F is 95%.

Tested on in the next data set: not listed separately
The description is as §1. Particulars: in vivo.
Usually bioavailability stands for dose-corrected exposure relative to a reference, in per cent. A high value points to good availability. The compound `CN/C(=N/CCSCc1nc[nH]c1C)NC#N` [CIMETIDINE] had a bioavailability of 60%. `Cc1ncc2n1-c1ccc(Cl)cc1C(c1ccccc1F)=NC2` [MIDAZOLAM]: the bioavailability stood at 40.5%. On the same count and under the same terms, to `CC[C@]1(c2ccccc2)C(=O)NC(=O)N(C)C1=O` [(S)-METHYLPHENOBARBITAL] belongs 73%.

The data set is the same for the next values; noted with them: in vivo, F.
In turn, `CCN(CC)CCC[C@H](C)Nc1ccnc2cc(Cl)ccc12` displayed a bioavailability of 80%.

Compound `Cc1cccc(C)c1NC(=O)[C@H](C)N` [S-TOCAINIDE] came in with a bioavailability of 89%. The compound `CO[C@H]1C[C@@H]2CC[C@@H](C)[C@@](O)(O2)C(=O)C(=O)N2CCCC[C@H]2C(=O)O[C@H]([C@H](C)C[C@@H]2CC[C@@H](O)[C@H](OC)C2)CC(=O)[C@H](C)/C=C(\C)[C@@H](O)[C@@H](OC)C(=O)[C@H](C)C[C@H](C)/C=C/C=C/C=C/1C` [SIROLIMUS] displayed a bioavailability of 14%. Take `CC(C)Cc1ccc([C@@H](C)C(=O)O)cc1` [(R)-IBUPROPHEN]: the bioavailability amounted to 80%. The compound `COc1ccc(CCN(C)CCC[C@@](C#N)(c2ccc(OC)c(OC)c2)C(C)C)cc1OC` gave a bioavailability of 13.5%.

In the case of `CCCCNC(=O)NS(=O)(=O)c1ccc(C)cc1` [TOLBUTAMIDE], the bioavailability turned out to be 85%.
